Measurements taken from PMC10787068, “Targeting the Mitochondrial Chaperone TRAP1 Alleviates Vascular Pathologies in Ischemic Retinopathy” (Advanced Science, 2023).
Entries after “also recorded” stand apart in the source; their conditions may differ.

Key:
calpain = assay: Calpain activity assay in MIO‐M1 cells; type: cell-based, human; conditions: 3 µM gamitrinib or 0.5 µM MitoQ, 6 h under hypoxia, fluorogenic calpain substrate, n = 4
Experimental: (§1) Figure 5 TRAP1 inhibition induces mPTP opening, mitochondrial calcium discharge, and calpain‐1 activation. A) Visualization of cytoplasmic calcium. Fluo‐4 AM‐labeled MIO‐M1 cells were incubated with the TRAP1 inhibitors gamitrinib and MitoQ^[ [32], [41] ^] for 6 h or thapsigargin for 30 min under hypoxia, and analyzed by confocal microscopy. Scale bars, 10 µm and 2 µm (inset). […] MIO‐M1 cells were treated with a TRAP1 inhibitor, 3 µM gamitrinib or 0.5 µM MitoQ, for 6 h under hypoxia (n = 4). Enzyme activity was measured using a fluorogenic calpain substrate as described in the Experimental Section. C) Restored HIF1α expression upon CypD inhibition. MIO‐M1 cells were incubated with control or CypD‐targeting siRNAs, treated with the TRAP1 inhibitor MitoQ for 6 h under hypoxia, harvested, and analyzed by western blotting. Black and red arrows indicate pro and autolyzed forms of calpain‐1, respectively. […] MIO‐M1 cells were incubated with TRAP1‐targeting siRNAs for 48 h, exposed to hypoxia for 6 h, harvested, and analyzed by qPCR (n = 4). […] Cells were then analyzed by flow cytometry to detect cytoplasmic calcium. […] MIO‐M1 cells were incubated with TRAP1 inhibitors, 3 µM gamitrinib, and 0.5 µM MitoQ, and a cell‐permeable calcium chelator, BAPTA (10 µM), for 6 h as indicated under hypoxia and analyzed by western blotting. […] Data information: Data are expressed as mean ± SEM. […]

Trap1 KO MIO-M1 cells = assay: TRAP1 inhibitor effects in Trap1 KO MIO‐M1 cells; type: cell-based, human
Experimental: MIO‐M1 Trap1 KO cell lines were generated using CRISPR/Cas9‐derived RNA‐guided endonucleases (Toolgen; Seoul, Republic of Korea). MIO‐M1 cells were co‐transfected with the Cas9 vector and TRAP1‐sgRNA expression vector (sgRNA sequence 1; 5′‐[…]‐3′ and sequence 2; 5′‐[…]‐3′) using jetPRIME transfection reagent (Polyplus; Illkirch‐Graffenstaden, France). Transfected cells were selected in culture medium containing […] puromycin (Sigma). Single‐cell colonies were collected using a cloning cylinder (I.D. × H 6.4 mm × 8 mm; Sigma) and analyzed using T7 endonuclease I to confirm Trap1 KO.
Supplementary Figure 16. Calpain-1 autolysis and HIF1α degradation in Trap1 […]
A) HIF1α degradation and calpain-1 autolysis in Trap1 knockout (KO) MIO-M1 cells. Trap1 KO MIO-M1 cells were generated as described in the Experimental Section and incubated in hypoxia for 6 hr, followed by analysis using western blotting. Under hypoxia, HIF1α degradation and autoproteolysis of calpain-1 were found in Trap1 KO MIO-M1 cells, when compared with wild type (WT) cells. […]
cell lines were established using MIO-M1 cells. WT and KO cells were incubated with MitoQ for 6 hr under hypoxia and analyzed by western blotting. Trap1 KO reduced the expression of […]
Quantification of the HIF1α protein level. HIF1α western blot density was analyzed and compared. Data are expressed as mean ± SEM from four independent experiments.
C) Cytoplasmic calcium concentration. WT and Trap1-KO MIO-M1 cells were labeled with […]
Fluo-4 AM, incubated with 3 μM gamitrinib or 1 μM MitoQ for 6 hr under hypoxia, collected, and analyzed by flow cytometry. Data information: Data are expressed as mean ± SEM.
Student t-test, ***P < 0.001; ns, not significant. […]

MIO‐M1 cells = assay: Cytoplasmic calcium (Fluo‐4 AM) in MIO‐M1 cells; type: cell-based, human; conditions: Fluo‐4 AM‐labeled MIO‐M1 cells under hypoxia; MitoQ 6 h, thapsigargin 30 min
Experimental: as §1

mouse cornea = assay: Corneal toxicity after topical application (H&E staining); type: in vivo; conditions: 2 mM once daily for 6 days
Experimental: their cytotoxic activities were analyzed in four independent experiments by trypan blue staining. The calculated IC50 values are presented in the normal cell cytotoxicity column in Table 1. B) Topical toxicity of TRAP1 inhibitors. A 3D culture of human corneal epithelium (MCTT HCE) was incubated with 2 mM TRAP1 inhibitors and analyzed by H&E staining.
The culture thickness (n = 5) was measured and analyzed (Table S1). Scale bar, 25 μm. C) Corneal toxicity. After topical application of 2 mM MitoQ, SB-U014, or SB-U015 once daily for 6 days, the mouse cornea was harvested and analyzed by H&E staining. Treatment with […]
Supplementary Table 1. Percentage viability and thickness of the 3D culture of MCTT […]
Drug Percentage viability (%) Thickness (μm)
A 3D culture of human corneal epithelium (MCTT HCE) was incubated with 2 mM TRAP1 inhibitors, and the percentage viability was analyzed by the WST-1 assay (n = 4). Absorbance was measured with a microplate reader. Thickness was calculated from H&E staining images (n = 5) as in Figure S18B, Supporting information. Data Information: The data are […]

With `COC1=C(OC)C(=O)C(CCCCCCCCCC[P+](c2ccccc2)(c2ccccc2)c2ccccc2)=C(C)C1=O` [MitoQ, mitoquinone] the calpain enzyme activity (calpain) was “Calpain activation”, the “cytosolic calcium concentration in Trap1−/− cells” value (Trap1 KO MIO-M1 cells; 3 μM gamitrinib or 1 μM MitoQ, 6 hr under hypoxia, Fluo-4 AM flow cytometry) was “did not affect” and the “HIF1α expression in Trap1−/− cells” value (Trap1 KO MIO-M1 cells; 6 hr under hypoxia, western blotting) was “not further affected; also recorded: did not affect”. The “calpain‐1 activation in Trap1−/− cells” value (Trap1 KO MIO-M1 cells; hypoxia) was “did not affect”, the cytoplasmic calcium (MIO‐M1 cells) was “Modestly elevated” and the “histologic abnormality of cornea after topical application” value (mouse cornea) was “did not cause any noticeable abnormality”.
